Measurements as given in US20250340543A1, “GPR84 ANTAGONISTS AND USES THEREOF” (Liminal BioSciences Limited, priority 2021, published 2025).

target: GPR84 (Homo sapiens (Human), UniProt Q9NQS5); assay: Gai biosensor BRET assay (GPR84-mediated activation of Gai, antagonist mode against agonist ZQ-16); type: cell-based; settings: HEK293 cells, 200 nmol/L GPR84 agonist ZQ-16, read-out: hGPR84 IC50
From the text: Background—The following assays can be used for determination of GPR84 activation in living HEK293 cells. […] The Gai biosensor consists of a Rluc8-tagged Gαi2 subunit, a GFP10-tagged Gγ2 subunit, and an untagged Gβ1. […] Moreover, signaling functions of GPCRs are tightly regulated by endocytosis, the targeting of receptors to endosomes and their sorting to lysosomes or recycling to the plasma membrane. […] Agonist stimulation of GPR84—Rluc8 leads to trafficking of the receptor to EEs, and ensuing increase of the donor concentration relative to the rGFP-FYVE acceptor anchored in the same cellular compartment, and thus results in an increase in BRET signal.
Plasmids—The cDNA clones for human GPR84 receptor, human Gαi2, Gβ1, and Gγ2 were obtained from the cDNA Resource Center (www.cdna.org). GFP10 (F64L, S147P, S202F and H231L variant of Aequorea victoria Green Fluorescent Protein) gBlocks gene fragments (Integrated DNA Technologies, IA) and linker were inserted in frame at the N-terminus of human Gγ2. Rluc8 (A55T, C124A, S130A, K136R, A143M, M185V, M253L, and S287L variant of the Renilla renformis luciferase) gBlocks gene fragment was inserted with linkers in frame in between residues 91 and 92 of Gαi2 or at the C-terminus of GPR84. The FYVE domain from human endofin (residues Q739 to K806) attached in frame at the C terminus of a humanized Renilla GFP (rGFP), were synthesized as gBlocks gene fragments.
Bioluminescence Resonance Energy Transfer (BRET) Measurement—HEK293 cells were transfected with GPR84—Rluc8 and rGFP-FYVE for the EEs trafficking biosensor or with GPR84, Gαi2—Rluc8, GFP10-Gγ2, and Gβ1 for the Gai biosensor. The following day, transiently transfected cells were seeded in 96-well white clear bottom microplates coated with poly-D-lysine and left in culture for 24 hours. Cells were washed once with Tyrode's buffer (140 mmol/L NaCl, 1 mmol/L CaCl2, 2.7 mmol/L KCl, 0.49 mmol/L MgCl2, 0.37 mmol/L NaH2PO4, 5.6 mmol/L glucose, 12 mmol/L NaHCO3, and 25 mmol/L HEPES, pH 7.5) before performing assays in Tyrode's buffer. Test compounds were incubated with cells for 5 (Gai) or 15 (EEs) minutes at 37° C. before addition of 200 nmol/L of the GPR84 agonist ZQ-16 (2-(Hexylthio)-6-hydroxy-4(3H)-pyrimidinone) for 5 minutes at room temperature (Gai) or 30 minutes at 37° C. (EEs). The Rluc8 substrate coelenterazine 400A (Prolume, Lakeside, AZ) was added at a final concentration of […] and BRET readings were collected using an Infinite M1000 microplate reader (Tecan, Morrisville, NC). BRET^2 readings between Rluc8 and GFP10 or rGFP were collected by sequential integration of the signals detected in the 370 to 450 nm (Rluc8) and 510 to 540 nm (GFP10, rGFP) windows. The BRET signal was calculated as the ratio of light emitted by acceptor (GFP10, rGFP) over the light emitted by donor (Rluc8). The values were corrected to net BRET by subtracting the background BRET signal obtained in cells transfected with Rluc8 constructs alone. Ligand-promoted net BRET values were calculated by subtracting vehicle-induced net BRET from ligand-induced net BRET.

GPR84, sequence (Q9NQS5 whole entry): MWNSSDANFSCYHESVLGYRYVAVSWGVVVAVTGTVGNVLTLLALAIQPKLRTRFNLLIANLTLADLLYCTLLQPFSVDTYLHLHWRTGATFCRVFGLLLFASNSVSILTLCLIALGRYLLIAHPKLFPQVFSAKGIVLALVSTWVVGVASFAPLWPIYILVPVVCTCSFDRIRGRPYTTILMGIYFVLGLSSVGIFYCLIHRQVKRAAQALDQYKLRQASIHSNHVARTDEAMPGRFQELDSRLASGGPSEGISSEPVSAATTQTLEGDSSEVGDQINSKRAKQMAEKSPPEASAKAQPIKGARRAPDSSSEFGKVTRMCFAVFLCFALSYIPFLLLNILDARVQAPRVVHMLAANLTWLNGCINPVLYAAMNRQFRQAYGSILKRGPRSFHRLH

| IC50 | SMILES |
| --- | --- |
| > 25 µM | O=C(CC1CCOCC1)N1Cc2ccc(C#CC3CC3)cc2C1 [Compound I-180] |
| > 25 µM | O=C(CC1CCOCC1)N1CCc2cc(C#CC3CC3)ccc2C1 [Compound I-181] |
| 5 to 10 µM | Cc1ccc(-c2ccc3c(c2)OCCn2c-3cc(OCC3COCCO3)nc2=O)cn1 (centres unmarked) [Compound I-211] |
| < 5 µM | O=c1nc(OCC2COCCO2)cc2n1CCOc1cc(C#CC3CC3)ccc1-2 (centres unmarked) [Compound I-214] |

same assay, conditions: compound tested at 1 μM (concentration code A*)

| inhibition at 1 µM | SMILES |
| --- | --- |
| < 25% | O=C(NCC1CCCO1)N1CCc2cc(C#CC3CC3)ccc2C1 (centres unmarked) [Compound I-183] |
| < 25% | O=C(NCC1CCCO1)N1Cc2ccc(C#CC3CC3)cc2C1 (centres unmarked) [Compound I-184] |

same assay, conditions: compound tested at 5 μM (concentration code C)

| inhibition at 5 µM | SMILES |
| --- | --- |
| < 25% | COc1cc(OCC2COCCO2)cc(-c2ccc(OCC(F)(F)F)cc2)c1 (centres unmarked) [Compound I-166] |
| < 25% | Cc1ccc(-c2ccc(-c3ccc4oc(=O)n(CC5CCCCO5)c4c3)cc2)cn1 (centres unmarked) [Compound I-168] |
| < 25% | COc1ccc2c(-c3ccc(C#CC4CC4)cc3)nnn2c1 [Compound I-215] |

same assay, conditions: compound tested at 10 μM (concentration code D)

| inhibition at 10 µM | SMILES |
| --- | --- |
| < 25% | Cc1cc(OCC2COCCO2)cc(=O)n1Cc1ccc(C#CCNCc2ccccc2)cc1 (centres unmarked) [Compound I-123] |
| < 25% | Cc1cc(OCC2COCCO2)cc(=O)n1Cc1cc(C#CC2CC2)ccc1F (centres unmarked) [Compound I-143] |
| > 75% | Cc1cc(OC[C@H]2CCCCO2)cc(=O)n1[C@H](C)c1ccc(C#CC2CC2)cc1 [Compound I-145] |
| < 25% | Cc1cc(OCC2COCCO2)cc(=O)n1Cc1cccc(N2CC(C)(C)C2)c1 (centres unmarked) [Compound I-146] |
| < 25% | Cc1cc(OCC2COCCO2)cc(=O)n1[C@H](C)c1ccc(C#CCNS(=O)(=O)C2CC2)cc1 (some centres unmarked) [Compound I-149] |
| 25 to 50% | O=C(CC1CCCCO1)N1CCc2cc(C#CC3CC3)ccc2C1 (centres unmarked) [Compound I-187] |
| < 25% | COc1ccc2nc(-c3ccc(C#CC4CC4)cc3)cn2c1 [Compound I-216] |
| < 25% | O=C(CC1CCOc2ccccc21)N1Cc2ccc(C#CC3CC3)cc2C1 (centres unmarked) [Compound I-217] |
| 25 to 50% | COc1ccc([C@@H](C)n2c(C)cc(OCC3COCCO3)cc2=O)cc1 (some centres unmarked) [Compound I-218] |
| 50 to 75% | CC#Cc1ccc([C@@H](C)n2c(C)cc(OCC3COCCO3)cc2=O)cc1 (some centres unmarked) [Compound I-219] |
| < 25% | Cc1cc(OCC2COCCO2)cc(=O)n1C(C)c1ccc(C#CC2CC2)s1 (centres unmarked) [Compound I-220] |
| 25 to 50% | Cc1cc(OCC2COCCO2)cc(=O)n1C(C)c1cc(C#CC2CC2)cs1 (centres unmarked) [Compound I-221] |
| < 25% | Cc1cc(OCC2COCCO2)cc(=O)n1[C@H](C)c1ccc(N2CC(C)(CO)C2)cc1 (some centres unmarked) [Compound I-224] |

same assay, conditions: compound tested at 12.5 μM (concentration code E)

| inhibition at 12.5 µM | SMILES |
| --- | --- |
| < 25% | Cc1ccc(-c2ccc(-c3cc(OCC4CCCCO4)ncn3)cc2)cn1 (centres unmarked) [Compound I-124] |

same assay, conditions: compound tested at 15 μM (concentration code F)

| inhibition at 15 µM | SMILES |
| --- | --- |
| < 25% | FC(F)(F)COc1ccc(-c2cc(OCC3COCCO3)cc(C3CO3)c2)cc1 (centres unmarked) [Compound I-164] |
| 25 to 50% | O=C(CC1CCOCC1)N1CCc2cc(C#CC3CC3)ccc2C1 [Compound I-181] |
| < 25% | COc1ccc(OCC2COCCO2)cc1Cc1ccc(C#CC2CC2)cc1 (centres unmarked) [Compound I-210] |

same assay, conditions: compound tested at 25 μM (concentration code G)

| inhibition at 25 µM | SMILES |
| --- | --- |
| < 25% | COc1cc(OCC2COCCO2)cc(-c2c(C)cc(OCc3ccccc3)cc2C)n1 (centres unmarked) [Compound I-125] |
| < 25% | Cc1cc(C#CC2CC2)ccc1-c1cc(OCC2COCCO2)n(C)c(=O)n1 (centres unmarked) [Compound I-126] |
| < 25% | C(#CC1CC1)c1ccc(-c2nccc(OCC3CCCCO3)n2)cc1 (centres unmarked) [Compound I-127] |
| < 25% | C(#CC1CC1)c1ccc(-c2ccnc(OCC3CCCCO3)n2)cc1 (centres unmarked) [Compound I-128] |
| < 25% | FC(F)(F)COc1ccc(-c2cccc(OCC3CCCCO3)n2)cc1 (centres unmarked) [Compound I-129] |
| < 25% | COc1cc(OCC2COCCO2)cc(-c2ccc(C#CCNc3ccccc3)cc2)n1 (centres unmarked) [Compound I-130] |
| < 25% | COc1cnc(OCC2COCCO2)c(-c2ccc(OCC(F)(F)F)cc2)c1OC (centres unmarked) [Compound I-131] |
| < 25% | Cc1ccc(-c2ccc(-c3nccc(OCC4CCCCO4)n3)cc2)cn1 (centres unmarked) [Compound I-133] |
| < 25% | COc1cc(OCC2COCCO2)nc(-c2ccc(OCc3ccccn3)cc2C)n1 (centres unmarked) [Compound I-134] |
| < 25% | C(#CC1CC1)c1ccc(-c2cc(OCC3CCCCO3)cnn2)cc1 (centres unmarked) [Compound I-135] |
| < 25% | Cn1c(OCC2COCCO2)cc(-c2ccc(C#CC3CC3)cc2)nc1=O (centres unmarked) [Compound I-136] |
| < 25% | CN1CCN(c2cc(OCC3COCCO3)nc(=O)n2C)CC1 (centres unmarked) [Compound I-137] |
| < 25% | CC(=O)N1CCN(c2cc(OCC3COCCO3)nc(=O)n2C)CC1 (centres unmarked) [Compound I-138] |
| < 25% | Cc1ccc(-c2ccc(-c3nc(OCC4COCCO4)cc(=O)[nH]3)cc2)cn1 (centres unmarked) [Compound I-139, 6-((1,4-dioxan-2-yl)methoxy)-2-(4-(6-methylpyridin-3-yl)phenyl)pyrimidin-4(3H)-one] |
| < 25% | FC(F)(F)COc1ccc(-c2cc(OCC3COCCO3)cc3c2OCCO3)cc1 (centres unmarked) [Compound I-155] |
| < 25% | COc1cc(OCC2COCCO2)cc(-c2ccc(OCC(F)(F)F)cc2)c1OC (centres unmarked) [Compound I-156] |
| < 25% | COc1cc(OCC2COCCO2)cc(-c2ccc(OCC(F)(F)F)cc2)c1C (centres unmarked) [Compound I-157] |
| < 25% | FC(F)(F)COc1ccc(-c2nc(OCC3COCCO3)cc3c2OCCO3)cc1 (centres unmarked) [Compound I-158] |

| inhibition at 25 µM | SMILES |
| --- | --- |
| < 25% | FC(F)(F)COc1ccc(-c2c(OCC3COCCO3)ncc3c2OCCO3)cc1 (centres unmarked) [Compound I-159] |
| < 25% | FC(F)(F)COc1ccc(-c2nc(OCC3COCCO3)cc3c2OCCC3)cc1 (centres unmarked) [Compound I-160] |
| < 25% | FC(F)(F)COc1ccc(-c2cc(Cl)cc(OCC3COCCO3)c2)cc1 (centres unmarked) [Compound I-161] |
| < 25% | CN(C)C(=O)c1cc(OCC2COCCO2)cc(-c2ccc(OCC(F)(F)F)cc2)c1 (centres unmarked) [Compound I-162] |
| < 25% | FC(F)(F)COc1ccc(-c2cc(OCC3COCCO3)cc(C3COC3)c2)cc1 (centres unmarked) [Compound I-163] |
| < 25% | FC(F)(F)COc1ccc(-c2cc(OCC3COCCO3)cc(C(F)(F)F)c2)cc1 (centres unmarked) [Compound I-165] |
| < 25% | O=c1oc2ccc(-c3ccc(C#CC4CC4)cc3)cc2n1CC1CCCCO1 (centres unmarked) [Compound I-167] |
| < 25% | O=c1oc2ccc(-c3ccc(C#CC4CC4)cc3)cc2n1CC1COCCO1 (centres unmarked) [Compound I-169] |
| < 25% | C(#CC1CC1)c1ccc(Cc2cccc(OCC3COCCO3)c2)cc1 (centres unmarked) [Compound I-174] |
| < 25% | Cc1ccc(-c2ccc(Cc3cccc(OCC4COCCO4)c3)cc2)cn1 (centres unmarked) [Compound I-176] |
| < 25% | O=C(CC1COCCO1)N1Cc2ccc(C#CC3CC3)cc2C1 (centres unmarked) [Compound I-177] |
| 50 to 75% | O=C(CC1CCOCC1)N1Cc2ccc(C#CC3CC3)cc2C1 [Compound I-180] |
| 25 to 50% | O=C(CC1CCCCO1)N1Cc2ccc(C#CC3CC3)cc2C1 (centres unmarked) [Compound I-186] |
| < 25% | Cc1ccc(-c2ccc3c(c2)CN(C(=O)CC2CCCCO2)C3)cn1 (centres unmarked) [Compound I-197] |
| 25 to 50% | Cc1ccc(-c2ccc3c(c2)CCN(C(=O)CC2CCCCO2)C3)cn1 (centres unmarked) [Compound I-203] |
| 25 to 50% | O=c1nc(OCC2COCCO2)cc2n1CCOc1cc(Cl)ccc1-2 (centres unmarked) [Compound I-206] |
| 25 to 50% | Cc1ccc(-c2ccc3c(c2)OCCn2c-3cc(OCC3COCCO3)nc2=O)cn1 (centres unmarked) [Compound I-211] |
| > 75% | O=c1nc(OCC2COCCO2)cc2n1CCOc1cc(C#CC3CC3)ccc1-2 (centres unmarked) [Compound I-214] |
